Assay results from ChEMBL document CHEMBL5303304, “EUbOPEN Chemogenomics Library - IncuCyte” (2023).

What was measured:
Format in all cases: toxicity, cell-based
HEK-293T = experiment: Incucyte cell viability with HEK293T; conditions: human, 10 µM, compound concentration 10 uM
Fibroblast = experiment: Incucyte cell viability with human fibroblast; conditions: 10 µM, compound concentration 10 uM
U2OS = experiment: Incucyte cell viability with U2OS; conditions: human, 10 µM, compound concentration 10 uM
Also: unitless GR value; below 1 slowed growth and below 0 cell loss.

| Structure (SMILES) | Growth Rate (Fibroblast; 12 h, replicate number 2) | Growth Rate (U2OS; 6 h, replicate number 1) | Growth Rate (U2OS; 12 h, replicate number 1) | Growth Rate (U2OS; 18 h, replicate number 2) | Growth Rate (U2OS; 24 h, replicate number 1) | Growth Rate (U2OS; 24 h, replicate number 2) | Growth Rate (U2OS; 0 h, replicate number 1) | Growth Rate (U2OS; 0 h, replicate number 2) | Growth Rate (U2OS; 6 h, replicate number 2) | Growth Rate (U2OS; 12 h, replicate number 2) | Growth Rate (Fibroblast; 6 h, replicate number 2) | Growth Rate (Fibroblast; 18 h, replicate number 1) | Growth Rate (Fibroblast; 18 h, replicate number 2) | Growth Rate (Fibroblast; 24 h, replicate number 1) | other results |
| --- | --- | --- | --- | --- | --- | --- | --- | --- | --- | --- | --- | --- | --- | --- | --- |
| COc1cc(C(=O)NCCOCCOCCOCCC(=O)Nc2cccc3c2C(=O)N(C2CCC(=O)NC2=O)C3=O)ccc1Nc1ncc(C(F)(F)F)c(Oc2cccc3c2C(=O)CC3)n1 (stereo not given) | 0.65 | – | – | – | – | – | – | – | – | – | – | – | – | – | Growth Rate (HEK-293T; 0 h, replicate number 1): -0.87; Growth Rate (HEK-293T; 0 h, replicate number 2): -0.99; Growth Rate (HEK-293T; 6 h, replicate number 1): 0.89; Growth Rate (HEK-293T; 12 h, replicate number 1): 0.57; Growth Rate (HEK-293T; 18 h, replicate number 1): 0.71; Growth Rate (HEK-293T; 18 h, replicate number 2): 0.69; Growth Rate (HEK-293T; 24 h, replicate number 1): 0.61; Growth Rate (HEK-293T; 24 h, replicate number 2): 0.74; Growth Rate (Fibroblast; 0 h, replicate number 2): 0.45 |
| Cl.Cl.Nc1nccc(-c2c(-c3ccc(F)cc3)ncn2C2CCCCC2)n1 | – | 0.19 | 0.8 | 0.84 | 0.95 | 0.81 | – | – | – | – | – | – | – | – | Growth Rate (U2OS; 18 h, replicate number 1): 0.93; Growth Rate (HEK-293T; 0 h, replicate number 2): 0.73; Growth Rate (HEK-293T; 6 h, replicate number 1): 0.63; Growth Rate (HEK-293T; 6 h, replicate number 2): 0.51; Growth Rate (HEK-293T; 12 h, replicate number 1): 0.99; Growth Rate (HEK-293T; 12 h, replicate number 2): 0.49; Growth Rate (HEK-293T; 18 h, replicate number 1): 0.99; Growth Rate (HEK-293T; 18 h, replicate number 2): 0.44; Growth Rate (HEK-293T; 24 h, replicate number 1): 0.95; Growth Rate (HEK-293T; 24 h, replicate number 2): 0.51 |
| CCN1C(=O)C(c2cccc(C(=O)O)c2)C(=O)N(c2ccccc2)c2cc(C(F)(F)F)ccc21 (stereo not given) | 0.41 | 0.49 | 0.8 | 0.95 | 0.88 | – | 0.96 | 0.93 | 0.97 | 0.94 | -0.94 | 0.92 | 0.96 | 0.95 | Growth Rate (Fibroblast; 0 h, replicate number 1): -1; Growth Rate (Fibroblast; 0 h, replicate number 2): 0.93; Growth Rate (Fibroblast; 6 h, replicate number 1): 0.7; Growth Rate (Fibroblast; 12 h, replicate number 1): 0.85 |
| C[C@]12CC[C@H](O)CC1=CC[C@@H]1[C@@H]2CC[C@]2(C)C(n3cnc4ccccc43)=CC[C@@H]12 [GALETERONE] | – | – | – | – | – | – | -0.4 | – | – | – | -0.64 | 0.61 | – | 0.01 | Growth Rate (Fibroblast; 0 h, replicate number 1): -0.16; Growth Rate (Fibroblast; 0 h, replicate number 2): 0.96; Growth Rate (Fibroblast; 6 h, replicate number 1): 0.94 |
| c1ccc(Cn2c(N3CCNCC3)nc3ccccc32)cc1 [LERISETRON] | 0.34 | 0.7 | – | 0.94 | – | 0.99 | – | – | 0.64 | – | -0.44 | – | 0.56 | – | Growth Rate (Fibroblast; 0 h, replicate number 1): -0.1; Growth Rate (Fibroblast; 24 h, replicate number 2): 0.68 |
| CC(C)(O)[C@H](F)CN1Cc2cc(NC(=O)c3cnn4cccnc34)c(N3CCOCC3)cc2C1=O | – | – | – | 0.95 | – | 0.93 | -0.84 | – | – | 0.95 | – | – | – | – | Growth Rate (HEK-293T; 0 h, replicate number 2): 0.15; Growth Rate (HEK-293T; 6 h, replicate number 1): 0.89; Growth Rate (HEK-293T; 6 h, replicate number 2): 0.72; Growth Rate (HEK-293T; 12 h, replicate number 1): 1; Growth Rate (HEK-293T; 12 h, replicate number 2): 0.86; Growth Rate (HEK-293T; 18 h, replicate number 2): 0.82; Growth Rate (HEK-293T; 24 h, replicate number 1): 0.96; Growth Rate (HEK-293T; 24 h, replicate number 2): 0.85 |
| N#C/C(=C\c1ccc(O)c(O)c1)C(=O)OCCc1cccs1 | 0.78 | – | – | 0.94 | 0.8 | 0.93 | – | 0.41 | – | 0.63 | -0.28 | 1 | 0.58 | 0.86 | Growth Rate (Fibroblast; 24 h, replicate number 2): 0.54 |
| Cc1cc(Cn2c(N3CC4(CNC4)C3)nc3cc(Cl)cc(N4CCN(C)CC4)c32)cc(C)c1F | 0.21 | 0.43 | 0.79 | 0.98 | 0.83 | 0.96 | -0.3 | -0.61 | 0.64 | 0.82 | -0.44 | 0 | 0.16 | 0.06 | Growth Rate (U2OS; 18 h, replicate number 1): 0.95; Growth Rate (Fibroblast; 0 h, replicate number 1): -1; Growth Rate (Fibroblast; 0 h, replicate number 2): -0.8; Growth Rate (Fibroblast; 6 h, replicate number 1): -0.09; Growth Rate (Fibroblast; 12 h, replicate number 1): -0.09; Growth Rate (Fibroblast; 24 h, replicate number 2): 0.36 |
| Cl.Clc1cc2cc(c1)-c1cnn3ccc(nc13)NCCOCCO2 | – | – | 0.99 | – | 0.93 | 0.92 | -0.1 | 0.65 | 0.72 | 0.85 | -0.68 | 0.22 | – | -0.13 | Growth Rate (Fibroblast; 6 h, replicate number 1): 0.79; Growth Rate (Fibroblast; 12 h, replicate number 1): -1 |
| Cc1cnc(Nc2ccc(C(=O)N3CCN(C)CC3)cc2)nc1N[C@@H]1CCC[C@@H]1C(N)=O | -0.08 | 0.41 | 0.4 | 0.45 | 0.34 | 0.52 | 0.86 | 0.22 | -0.77 | 0.38 | 0.31 | – | 0.56 | 0.96 | Growth Rate (U2OS; 18 h, replicate number 1): 0.31; Growth Rate (Fibroblast; 12 h, replicate number 1): 0.62; Growth Rate (Fibroblast; 24 h, replicate number 2): 0.61 |
| COc1cc(C)c(S(=O)(=O)N(C)CCC(=O)N[C@H]2CC[C@@H](N3CCC4CN(C)CC4C3)CC2)c(C)c1.Cl.Cl (stereo not given in full) | – | 0.78 | 0.97 | 0.99 | – | – | – | – | 0.87 | 0.88 | – | – | – | – | Growth Rate (Fibroblast; 0 h, replicate number 2): -0.7; Growth Rate (Fibroblast; 6 h, replicate number 1): 0.39 |
| CC#CCC(C)[C@H](O)/C=C/[C@@H]1[C@H]2C/C(=C/CCCC(=O)O)C[C@H]2C[C@H]1O (stereo not given in full) [ILOPROST] | – | – | – | – | 0.86 | – | – | – | – | – | – | – | – | – | Growth Rate (HEK-293T; 0 h, replicate number 1): 0.66; Growth Rate (HEK-293T; 0 h, replicate number 2): 0.38 |
| COc1cc(-c2cc3ncccc3c(O[C@@H](C)[C@H]3CNC(=O)C3)n2)cc(OC)c1OC | 0.62 | 0.94 | – | – | – | – | – | – | – | – | – | – | – | – | – |
| O=C(Nc1cc2cc[nH]c(=O)c2cc1Cl)[C@H]1CNC[C@@H]1c1cccnc1.O=C(O)C(F)(F)F | – | – | – | – | – | – | – | – | – | – | – | – | – | – | Growth Rate (HEK-293T; 0 h, replicate number 1): -0.73 |
| Cc1nc2cccnc2n2c(-c3cc([C@@]4(O)CCCOC4)ccc3Cl)nnc12 | 0.67 | – | – | 0.96 | – | – | – | – | – | 0.83 | -0.24 | 0.97 | 0.74 | 0.81 | Growth Rate (Fibroblast; 6 h, replicate number 1): 0.39; Growth Rate (Fibroblast; 24 h, replicate number 2): 0.88 |
| CC(C)N(CCCCOCC(=O)O)c1cnc(-c2ccccc2)c(-c2ccccc2)n1 | – | – | – | – | – | 0.99 | – | – | – | – | – | – | – | – | Growth Rate (Fibroblast; 0 h, replicate number 2): -0.09 |
| COc1nc2ccc([C@@](O)(c3ccc(Cl)cc3)c3cncn3C)cc2c(Cl)c1Cc1ccc(-n2cccn2)cc1 [JNJ-53721590] | – | -0.25 | – | – | – | – | -1 | – | – | – | – | – | – | – | Growth Rate (HEK-293T; 0 h, replicate number 1): -0.99; Growth Rate (HEK-293T; 0 h, replicate number 2): -1 |
| CS(C)(=O)=Nc1ccc(-c2ccc(-c3nc4[nH]c(O[C@@H]5CO[C@H]6[C@@H]5OC[C@H]6O)nc4cc3Cl)cc2)cc1 | – | 0.36 | 0.65 | 0.97 | 0.77 | 0.98 | 0.01 | – | 0.94 | 0.92 | – | – | – | 0.75 | Growth Rate (U2OS; 18 h, replicate number 1): 0.82 |
| COc1cc(Nc2cnc(C#N)c(O[C@H](C)CN(C)C)n2)ncc1-c1cnn(C)c1 | – | – | – | 0.67 | – | 0.43 | -1 | 0.66 | 0.42 | 0.82 | – | – | – | – | Growth Rate (HEK-293T; 0 h, replicate number 1): -1; Growth Rate (HEK-293T; 0 h, replicate number 2): -0.51; Growth Rate (HEK-293T; 6 h, replicate number 1): 0.63; Growth Rate (HEK-293T; 6 h, replicate number 2): -0.18; Growth Rate (HEK-293T; 12 h, replicate number 1): -0.1; Growth Rate (HEK-293T; 12 h, replicate number 2): -0.4; Growth Rate (HEK-293T; 18 h, replicate number 1): -0.17; Growth Rate (HEK-293T; 18 h, replicate number 2): -0.32; Growth Rate (HEK-293T; 24 h, replicate number 1): -0.06; Growth Rate (HEK-293T; 24 h, replicate number 2): -0.22 |
| O=C(O)c1ccc(CN2C[C@@H]3C[C@H]2CN3Cc2ccc(Oc3ccc(-c4ncco4)cc3)cc2)cc1 [ACEBILUSTAT] | 0.38 | 0.74 | – | 0.79 | – | 0.82 | – | 0.32 | -0.01 | 0.49 | -0.8 | – | 0.62 | – | Growth Rate (Fibroblast; 0 h, replicate number 1): -0.98; Growth Rate (Fibroblast; 24 h, replicate number 2): 0.87 |
| C[C@H](CCC(=O)O)[C@H]1CC[C@H]2[C@@H]3CC[C@@H]4C[C@H](O)CC[C@]4(C)[C@H]3C[C@H](O)[C@]12C [DEOXYCHOLIC ACID] | 0.78 | 0.86 | 0.76 | – | 0.86 | – | 0.46 | 0.84 | 0.82 | 0.96 | 0.72 | 0.97 | 0.69 | – | Growth Rate (U2OS; 18 h, replicate number 1): 0.88; Growth Rate (Fibroblast; 0 h, replicate number 1): 0.67; Growth Rate (Fibroblast; 6 h, replicate number 1): 0.32; Growth Rate (Fibroblast; 24 h, replicate number 2): 0.9 |
| O=C(O)c1cccc(C2=C(c3cc(Cl)ccc3OCc3ccc(F)cc3F)CCC2)n1 | – | – | – | – | – | – | – | – | – | 1 | – | – | – | – | Growth Rate (HEK-293T; 0 h, replicate number 1): 0.79 |
| CC(C)(C#N)c1cc(Cn2cncn2)cc(C(C)(C)C#N)c1 [ANASTROZOLE] | – | – | – | – | – | – | -0.51 | – | – | – | – | 0.84 | – | 0.63 | Growth Rate (Fibroblast; 0 h, replicate number 2): -1; Growth Rate (Fibroblast; 12 h, replicate number 1): -1 |
| CNc1oc(-c2cccc3ccccc23)nc1C#N | – | – | – | 0.92 | – | 0.99 | – | – | – | 0.93 | – | – | – | – | Growth Rate (HEK-293T; 0 h, replicate number 2): -0.92 |
